{"source": "ChEMBL document CHEMBL1133192", "about": "“sp2-bridged diaryl retinoids: effects of bridge-region substitution on retinoid X receptor (RXR) selectivity” (Bioorg Med Chem Lett, 2000)", "key": {"[1]": {"biological_target": "T1, Retinoic acid receptor RXR-alpha (Homo sapiens, UniProt P19793)", "T1 sequence (P19793 whole entry)": "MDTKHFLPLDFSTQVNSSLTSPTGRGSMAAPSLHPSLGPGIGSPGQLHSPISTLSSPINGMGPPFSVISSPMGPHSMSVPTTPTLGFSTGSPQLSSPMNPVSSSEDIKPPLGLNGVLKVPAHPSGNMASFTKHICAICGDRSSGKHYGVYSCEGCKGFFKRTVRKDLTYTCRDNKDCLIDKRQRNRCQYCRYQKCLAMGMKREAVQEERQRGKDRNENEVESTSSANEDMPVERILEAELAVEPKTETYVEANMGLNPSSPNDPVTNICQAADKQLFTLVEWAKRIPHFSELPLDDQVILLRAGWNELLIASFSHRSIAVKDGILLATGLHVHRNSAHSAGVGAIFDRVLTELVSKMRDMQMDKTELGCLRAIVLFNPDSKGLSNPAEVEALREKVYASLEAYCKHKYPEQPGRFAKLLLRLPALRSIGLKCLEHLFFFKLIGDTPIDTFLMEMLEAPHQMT", "test": "Transcriptional activation in CV-1 cells expressing Retinoid X receptor RXR-alpha", "format": "cell-based, Cercopithecidae"}, "MDA-MB-231 [2]": {"tested_on": "MDA-MB-231", "test": "Effect on MDA-MB-231 cell proliferation with trans-RA; No inhibition", "format": "functional, cell-based", "conditions": "Homo sapiens"}, "MDA-MB-231 [3]": {"tested_on": "MDA-MB-231", "test": "Effect on MDA-MB-231 cell proliferation; No inhibition", "format": "functional, cell-based", "conditions": "Homo sapiens"}, "[4]": {"biological_target": "T1, Retinoic acid receptor RXR-alpha", "test": "Transcriptional activation in CV-1 expressing retinoid X receptor RXR alpha"}, "MDA-MB-231 [5]": {"tested_on": "MDA-MB-231", "test": "Effect on MDA-MB-231 cell proliferation with compound 8; Significant inhibition", "format": "functional, cell-based", "conditions": "Homo sapiens"}, "MDA-MB-231 [6]": {"tested_on": "MDA-MB-231", "test": "Effect on MDA-MB-231 cell proliferation; No effect", "format": "functional, cell-based", "conditions": "Homo sapiens"}, "MDA-MB-231 [7]": {"tested_on": "MDA-MB-231", "test": "Inhibition of MDA-MB-231 cell proliferation after seven days", "format": "functional, cell-based", "conditions": "Homo sapiens, MDA-MB-231, 168 h"}, "MDA-MB-231 [8]": {"tested_on": "MDA-MB-231", "test": "Inhibition of MDA-MB-231 cell proliferation after seven days at 12.5 uM", "format": "functional", "conditions": "Homo sapiens, MDA-MB-231, 168 h"}, "[9]": {"biological_target": "T2, Retinoic acid receptor alpha (Homo sapiens) (UniProt P10276)", "T2 sequence (whole entry)": "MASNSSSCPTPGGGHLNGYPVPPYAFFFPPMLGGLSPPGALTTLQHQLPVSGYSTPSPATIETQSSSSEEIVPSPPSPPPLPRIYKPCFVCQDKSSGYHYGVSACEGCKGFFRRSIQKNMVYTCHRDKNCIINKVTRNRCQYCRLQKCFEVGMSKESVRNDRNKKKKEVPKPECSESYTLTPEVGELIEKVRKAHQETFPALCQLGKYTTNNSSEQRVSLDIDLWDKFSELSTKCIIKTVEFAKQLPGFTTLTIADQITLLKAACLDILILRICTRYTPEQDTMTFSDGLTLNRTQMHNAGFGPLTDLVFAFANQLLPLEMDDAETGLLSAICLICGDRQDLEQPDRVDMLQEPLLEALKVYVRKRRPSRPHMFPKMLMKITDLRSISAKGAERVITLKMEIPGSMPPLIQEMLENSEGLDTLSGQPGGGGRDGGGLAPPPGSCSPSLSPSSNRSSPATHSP", "test": "Percent transcriptional activation of Retinoic acid receptor RAR alpha at 1 uM compared to 1 uM trans-retinoic acid"}, "[10]": {"biological_target": "T3, Retinoic acid receptor beta (Homo sapiens) (UniProt P10826)", "T3 sequence (whole entry)": "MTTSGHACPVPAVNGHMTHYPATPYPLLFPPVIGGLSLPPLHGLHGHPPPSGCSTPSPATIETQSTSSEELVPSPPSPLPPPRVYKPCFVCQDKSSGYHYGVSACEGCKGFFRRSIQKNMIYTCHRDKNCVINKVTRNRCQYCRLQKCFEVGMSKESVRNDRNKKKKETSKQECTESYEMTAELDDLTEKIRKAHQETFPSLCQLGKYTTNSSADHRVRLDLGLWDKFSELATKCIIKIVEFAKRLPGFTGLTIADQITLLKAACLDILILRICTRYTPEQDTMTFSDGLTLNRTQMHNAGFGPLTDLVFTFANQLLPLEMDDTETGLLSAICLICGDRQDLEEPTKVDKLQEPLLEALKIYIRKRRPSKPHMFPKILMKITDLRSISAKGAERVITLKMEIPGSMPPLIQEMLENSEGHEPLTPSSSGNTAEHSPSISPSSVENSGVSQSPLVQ", "test": "Percent transcriptional activation of Retinoic acid receptor beta at 1 uM compared to 1 uM trans-retinoic acid"}, "[11]": {"biological_target": "T4, Retinoic acid receptor gamma (Homo sapiens) (UniProt P13631)", "T4 sequence (whole entry)": "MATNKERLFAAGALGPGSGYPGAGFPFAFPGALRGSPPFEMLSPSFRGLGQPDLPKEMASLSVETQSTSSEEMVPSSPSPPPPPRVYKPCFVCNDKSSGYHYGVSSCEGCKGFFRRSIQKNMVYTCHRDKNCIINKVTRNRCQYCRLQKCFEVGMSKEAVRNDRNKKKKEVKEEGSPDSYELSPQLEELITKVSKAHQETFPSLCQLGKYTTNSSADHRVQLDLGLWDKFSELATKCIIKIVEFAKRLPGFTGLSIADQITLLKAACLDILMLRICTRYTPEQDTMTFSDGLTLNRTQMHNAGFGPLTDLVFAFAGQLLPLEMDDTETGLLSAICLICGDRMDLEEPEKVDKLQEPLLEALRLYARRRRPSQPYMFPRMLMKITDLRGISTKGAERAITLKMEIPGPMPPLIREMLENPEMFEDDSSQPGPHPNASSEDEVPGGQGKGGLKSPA", "test": "Percent transcriptional activation of Retinoic acid receptor RAR gamma receptor at 1 uM compared to 1 uM trans-retinoic acid"}}, "note": "Calls of active or inactive are those of the source. No cut-off for these calls is given here."}
{"smiles": "Cc1cc2c(cc1C(=C1CC1)c1ccc(C(=O)O)cc1)C(C)(C)CCC2(C)C", "values": [{"measurement": "AC50", "setting": "[1]", "result": "< 10", "unit": "nM"}]}
{"smiles": "CC(C)=C(c1ccc(C(=O)O)cc1)c1cc2c(cc1C)C(C)(C)CCC2(C)C", "values": [{"measurement": "AC50", "setting": "[1]", "result": 22, "unit": "nM"}, {"measurement": "Activity", "setting": "MDA-MB-231 [2]", "result": "inactive"}, {"measurement": "Activity", "setting": "MDA-MB-231 [3]", "result": "inactive"}]}
{"smiles": "CC(C)/C=C(/c1ccc(C(=O)O)cc1)c1ccc2c(c1)C(C)(C)CCC2(C)C", "values": [{"measurement": "AC50", "setting": "[1]", "result": "> 1000", "unit": "nM"}]}
{"smiles": "CC1(C)CCC(C)(C)c2cc(-c3cccc4cc(C(=O)O)ccc34)ccc21", "values": [{"measurement": "AC50", "setting": "[4]", "result": "> 1000", "unit": "nM"}]}
{"smiles": "CC1=C(/C=C/C(C)=C/C=C/C(C)=C/C(=O)O)C(C)(C)CCC1", "values": [{"measurement": "Activity", "setting": "MDA-MB-231 [5]", "result": "Active"}, {"measurement": "Activity", "setting": "MDA-MB-231 [6]", "result": "inactive"}]}
{"smiles": "CC(C)=C(c1ccc(C(=O)O)cc1)c1ccc2c(c1)C(C)(C)CCC2(C)C", "values": [{"measurement": "AC50", "setting": "[1]", "result": 160, "unit": "nM"}]}
{"smiles": "CC1(C)CCC(C)(C)c2cc(C(=C3CC3)c3ccc(C(=O)O)cc3)ccc21", "values": [{"measurement": "AC50", "setting": "[1]", "result": 5, "unit": "nM"}, {"measurement": "IC50", "setting": "MDA-MB-231 [7]", "result": 1100, "unit": "nM"}]}
{"smiles": "CC1=C(/C=C/C(C)=C\\C=C\\C(C)=C\\C(=O)O)C(C)(C)CCC1", "note": "[ALITRETINOIN]", "values": [{"measurement": "inhibition at 12.5 µM", "setting": "MDA-MB-231 [8]", "result": 45, "unit": "%"}, {"measurement": "Activation", "setting": "[9]", "result": 105, "unit": "%"}, {"measurement": "Activation", "setting": "[10]", "result": 112, "unit": "%"}, {"measurement": "Activation", "setting": "[11]", "result": 126, "unit": "%"}]}
